These results are taken from US5734052A (Merrell Pharmaceuticals Inc., priority 1995, dated 1998).

The target in one assay is T1, adenosine A-2 receptors (Rattus norvegicus, UniProt P30543).
T1 construct: tissue Charles River; host or cells: striatal membranes of young male rats (C-D strain)
The assay is described as follows: Affinity for brain adenosine A-2 receptors ([3H]NECA competition, striatal membranes). Conditions: rat brain striatum membranes, 1 μM CHA in tube addition, 25° C., 60 minutes, read-out: A2 Ki. Type of assay: binding. The method, then:
Young male rats (C-D strain), obtained from Charles River, are killed by decapitation and the brain was removed. Membranes for ligand binding are isolated from rat brain striatum. The tissue is homogenized in 20 vol ice-cold 50 mM Tris-HCl buffer (pH 7.7) using a polytron (setting for 6 to 20 seconds). The homogenate is centrifuged at 50,000×g for 10 minutes at 4° C. The pellet is again homogenized in a polytron in 20 vol of buffer, and centrifuged as before. The pellet is finally resuspended in 40 vol of 50 mM Tris-HCl (pH 7.7) per gram of original wet weight of tissue.
Incubations are carried out at 25° C. for 60 minutes. Each tube is filtered through GF/B glass fiber filters using a vacuum. The filters are rinsed two times with 5 ml of the ice-cold buffer. […] The filters are counted by liquid scintillation spectrometry.
Specific binding of [3H]NECA is measured as the excess over blanks run in the presence of 100 μM 2-chloro-adenosine. Total membrane-bound radioactivity is about 2.5% of that added to the test tubes. […] Specific binding to membranes is about 50% of the total bound.

Assay [1] addresses T2, Adenosine A-1 receptor (Rattus norvegicus, UniProt P25099).
T2 sequence (P25099 1-326): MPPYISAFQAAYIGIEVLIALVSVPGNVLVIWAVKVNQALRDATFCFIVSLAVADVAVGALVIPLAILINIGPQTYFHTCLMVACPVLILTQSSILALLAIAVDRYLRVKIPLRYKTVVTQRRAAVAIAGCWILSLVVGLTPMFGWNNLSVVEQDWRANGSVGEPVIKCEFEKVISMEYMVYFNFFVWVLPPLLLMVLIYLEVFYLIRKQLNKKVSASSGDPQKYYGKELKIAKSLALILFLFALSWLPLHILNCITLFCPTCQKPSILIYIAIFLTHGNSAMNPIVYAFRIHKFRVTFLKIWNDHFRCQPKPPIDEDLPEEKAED

Assay [2] concerns the target T2, Adenosine A-1 receptor. Description: Affinity for brain adenosine A-1 receptor binding sites ([3H]cyclohexyladenosine competition). The settings on record: ratio of A2 Ki to A1 Ki.
The test system of a further assay is adenosine receptor. The settings on record: in vivo; cited from earlier work.
The next assay has as its system A-1 receptors. Conditions: in vitro, A-1 vs A-2; cited from earlier work.

For orientation: Ki means a measure of affinity in units of concentration, obtained from inhibition or displacement.

T1 sequence (P30543 whole entry): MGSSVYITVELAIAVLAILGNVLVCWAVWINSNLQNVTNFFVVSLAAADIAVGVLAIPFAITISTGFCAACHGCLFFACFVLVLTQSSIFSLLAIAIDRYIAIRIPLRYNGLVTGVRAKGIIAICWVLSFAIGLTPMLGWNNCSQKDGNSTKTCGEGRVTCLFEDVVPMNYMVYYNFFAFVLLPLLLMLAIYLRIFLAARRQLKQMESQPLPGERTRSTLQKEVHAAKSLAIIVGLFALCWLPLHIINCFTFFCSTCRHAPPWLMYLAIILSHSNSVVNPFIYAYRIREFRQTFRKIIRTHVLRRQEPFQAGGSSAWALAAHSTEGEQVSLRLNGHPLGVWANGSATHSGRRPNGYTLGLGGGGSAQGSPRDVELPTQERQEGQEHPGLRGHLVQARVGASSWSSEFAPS

With `CCCn1c(=O)c2[nH]c([C@@H]3CCC[C@H]3c3ccccc3)nc2n(CCC)c1=O` (relative stereo) [8-(trans-2-Phenylcyclopentyl)-1,3-dipropyl-3,9-dihydropurine-2,6-dione], the Ki at adenosine A-2 receptors came out at 2.72 µM.

On to `CCCn1c(=O)c2nc(C3CCc4ccccc4C3)[nH]c2n(CCC)c1=O` (stereo not shown) [1,3-Dipropyl-8-(1,2,3,4-tetrahydronaphthalen-2-yl)-3,9-dihydropurine-2,6-dione], for which, at adenosine A-2 receptors, the Ki is 10.3 µM. With `CCCn1c(=O)c2nc(CC(C)c3ccccc3)[nH]c2n(CCC)c1=O` (stereo not shown) [8-(2-Phenylpropyl)-1,3-dipropyl-3,9-dihydropurine-2,6-dione], the results for the Ki on adenosine A-2 receptors and on Adenosine A-1 receptor [1] were 1.74 µM and 0.0943 µM, respectively. At Adenosine A-1 receptor [2], the A2/A1 is 18. As for `CCCn1c(=O)c2[nH]c(-c3ccc(OCC(=O)NCCN)cc3)nc2n(CCC)c1=O` [XAC], the “potency in antagonizing effects of adenosine analogs on heart rate vs blood pressure” value with adenosine receptor is on record as “much more potent in antagonizing the effects of adenosine analogs on heart rate than on blood pressure”. As to `CCCn1c(=O)c2[nH]c(-c3ccc(OCC(=O)O)cc3)nc2n(CCC)c1=O` [XCC], the adenosine receptor selectivity entry in the assay on A-1 receptors is “adenosine receptor nonselective”.
